Laboratory results published in publication PMC7910394, “Design of PSMA ligands with modifications at the inhibitor part: an approach to reduce the salivary gland uptake of radiolabeled PSMA inhibitors?” (EJNMMI Radiopharmacy and Chemistry, 2021).

Tests used:
[1] = Lipophilicity (log D), shake-flask method; type: physicochemical; conditions: n-octanol/PBS pH 7.4, 177Lu-labeled compound, n = 6
Procedure: The log D values were determined, using the shake-flask method as previously described (Wurzer et al. [2020]). The radiolabeled tracer (0.5–1 MBq, 20 μL) was dissolved in 1 mL of a 1/1 mixture (v/v) of PBS (pH 7.4) and n-octanol in a reaction vial (n = 6). After vigorous mixing of the suspension for 3 min at r.t., the vial was centrifuged at 9000 rpm (ca. 7700×g) for 5 min at room temperature (Heraeus Biofuge 15, Thermo Fisher Scientific, Darmstadt, Germany) and 150 μL aliquots of both layers were measured in a ɣ-counter.

PSMA = biological target: T1, PSMA (Homo sapiens, UniProt Q04609); experiment: Competitive binding assay (IC50) on LNCaP cells with ([125I]I-BA)KuE as radioligand; conditions: ([125I]I-BA)KuE 0.2 nM, HBSS (1% BSA), 4 °C, 1 h
T1 construct: host or cells: LNCaP human prostate cancer cells
Procedure: (§1) PSMA-positive LNCaP cells (300265; Cell Lines Service, Eppelheim, Germany) were cultivated in Dulbecco’s modified Eagle medium/Nutrition Mixture F-12 with GlutaMAX (1/1, DMEM-F12, Thermo Fisher Scientific, Darmstadt, Germany) supplemented with 10% fetal bovine serum (Merck KGaA, Darmstadt, Germany) and kept at 37 °C in a humidified 5% CO2 atmosphere. One day (24 ± 2 h) prior to all in vitro experiments, the cultivated LNCaP cells were harvested using a mixture of trypsin/ethylenediamine-tetraacetic acid (0.05%/0.02%) in PBS (Thermo Fisher Scientific, Darmstadt, Germany) and centrifuged at 1300 rpm (ca. 190×g) for 3 min at room temperature (Heraeus Megafuge 16, Thermo Fisher Scientific, Darmstadt, Germany). After centrifugation, the supernatant was disposed and the cell pellet was resuspended in culture medium. Cells were counted with a Neubauer hemocytometer (Paul Marienfeld GmbH & Co. KG, Lauda-Königshofen, Germany) and seeded in 24-well plates.
(§2) Detailed information on affinity and internalization experiments is provided in the supporting information. […] IC50 values of (^natI-BA)KuE were determined on the same day for monitoring assay performance and to identify abnormal deviations in uptake and/or affinity. […] Data were corrected for non-specific binding and normalized to the specific internalization observed for the radioiodinated reference compound (n = 3).
The culture medium was removed and the cells were washed with 500 µL of Hank’s balanced salt solution (HBSS) (Merck KGaA, Darmstadt, Germany), containing 1% bovine serum albumin (BSA) (Merck KGaA, Darmstadt, Germany). Afterwards, 200 µL of HBSS (1% BSA) were added to each well and equilibrated on ice (4 °C) for 15 min. […] Experiments were carried out in triplicates for each concentration. The final concentrations of unlabeled ligand ranged from 10^-11 - 10^-5 M and the final radioligand concentration was 0.2 nM in all binding assays. The cells were incubated for one hour at 4 °C. Incubation was terminated by removal of the incubation medium. The cells were washed with 250 µL of HBSS (1% BSA) and the wash medium was combined with the respective supernatant. This fraction represents the amount of free radioligand. The cells were lysed by addition of 250 µL of 1 M aqueous NaOH. The lysate of each well was transferred to the respective vial as well as 250 µL of 1 M NaOH used for rinsing the well. Quantification of the amount of free and bound activity was performed in a γ-counter. The corresponding IC50 values were calculated using the GraphPad PRISM7 software.

[2] = test system: LNCaP tumor xenograft-bearing CB17-SCID mice; type: in vivo, mouse; conditions: 24 h p.i.
Procedure: All animal experiments were conducted in accordance with general animal welfare regulations in Germany (German animal protection act, as amended on 18.05.2018, Art. 141 G v. 29.3.2017 I 626, approval no. 55.2–1-54-2532-71-13) and the institutional guidelines for the care and use of animals. To establish tumor xenografts, LNCaP cells (approx. 10^7 cells) were suspended in 200 μL of a 1/1 mixture (v/v) of DMEM F-12 and Matrigel (BD Biosciences, Heidelberg, Germany) and inoculated subcutaneously onto the right shoulder of 6–8 weeks old CB17-SCID mice (Charles River Laboratories, Sulzfeld, Germany). Mice were used for experiments when tumor size reached 5–10 mm in diameter (3–6 weeks after inoculation).
(§3) Approximately 2–10 MBq (0.20 nmol) of the ^177Lu-labeled PSMA inhibitors were injected into the tail vein of LNCaP tumor xenograft-bearing male CB17-SCID mice (n = 3 to 5). They were sacrificed by CO2 asphyxiation and cervical dislocation either 1 h or 24 h post injection (p.i.) (n = 3 for [^177Lu]Lu-5, -6 & -7 (proinhibitor compounds I-III), n = 4 for [^177Lu]Lu-10 (alkyne), n = 5 for [^177Lu]Lu-3 (carbamate I) and n = 5 for [^177Lu]Lu-11 (tetrazole)). Selected organs were removed, weighed and organ activities measured in a γ-counter.
as §3, with “2 - 10” for “2–10”, “(alkyne) and” for “(alkyne),”

LNCaP cells = experiment: Internalization study of 177Lu-labeled ligands in LNCaP cells, normalized to ([125I]I-BA)KuE; type: cell-based, human; conditions: 37 °C; for internalization (in words): time points 0.5 h, 2 h and 4 h; for %Internalization compared to the reference: 1.0 nM 177Lu-compound, normalized to ([125I]I-BA)KuE
Procedure: as §1, §2
The culture medium was removed and the cells were washed with 500 µL of DMEM-F12 containing 5% BSA. Afterwards, 200 µL of DMEM-F12 (5% BSA) were added to each well and left to equilibrate at 37 °C for 15 min. 25 µL of DMEM-F12 (5% BSA) were added to each well, followed by the addition of 25 µL of the respective ^177Lu-labeled ligand (10.0 nM in DMEM-F12 (5% BSA)). For blocking PSMA-specific binding and uptake, 25 µL of 2-(phosphonomethyl)pentane-1,5-dioic acid (2-PMPA) (100 µM in DMEM (5% BSA)) instead of DMEM-F12 (5% BSA) were added prior to radiotracer addition. […] Each experiment (control and blockade) was performed in triplicate. […] Incubation was terminated by placing the plate on ice (4 °C, 1 min) and removal of the incubation medium. The cells were washed with 250 µL of ice-cold PBS and the wash medium was combined with the respective supernatant. This fraction represents the amount of free radioligand. 250 µL of ice-cold 2-PMPA (10 µM in PBS) were added and the cells were incubated for 10 min at 4 °C. Afterwards, the cells were rinsed again with 250 µL of ice-cold PBS and the wash medium was combined with the respective supernatant. This fraction represents the amount of cell surface-bound ligand. In the last step, the cells were lysed by addition of 250 µL of 1 M aqueous NaOH. After 20 min, the lysate of each well was transferred to the respective vial as well as 250 µL of 1 M NaOH used for rinsing the well. This fraction represents the amount of internalized radioligand. Quantification of the amount of free, cell surface-bound and internalized activity was performed in a γ-counter.

[3] = in vivo; cited from earlier work

T1 sequence (Q04609 whole entry): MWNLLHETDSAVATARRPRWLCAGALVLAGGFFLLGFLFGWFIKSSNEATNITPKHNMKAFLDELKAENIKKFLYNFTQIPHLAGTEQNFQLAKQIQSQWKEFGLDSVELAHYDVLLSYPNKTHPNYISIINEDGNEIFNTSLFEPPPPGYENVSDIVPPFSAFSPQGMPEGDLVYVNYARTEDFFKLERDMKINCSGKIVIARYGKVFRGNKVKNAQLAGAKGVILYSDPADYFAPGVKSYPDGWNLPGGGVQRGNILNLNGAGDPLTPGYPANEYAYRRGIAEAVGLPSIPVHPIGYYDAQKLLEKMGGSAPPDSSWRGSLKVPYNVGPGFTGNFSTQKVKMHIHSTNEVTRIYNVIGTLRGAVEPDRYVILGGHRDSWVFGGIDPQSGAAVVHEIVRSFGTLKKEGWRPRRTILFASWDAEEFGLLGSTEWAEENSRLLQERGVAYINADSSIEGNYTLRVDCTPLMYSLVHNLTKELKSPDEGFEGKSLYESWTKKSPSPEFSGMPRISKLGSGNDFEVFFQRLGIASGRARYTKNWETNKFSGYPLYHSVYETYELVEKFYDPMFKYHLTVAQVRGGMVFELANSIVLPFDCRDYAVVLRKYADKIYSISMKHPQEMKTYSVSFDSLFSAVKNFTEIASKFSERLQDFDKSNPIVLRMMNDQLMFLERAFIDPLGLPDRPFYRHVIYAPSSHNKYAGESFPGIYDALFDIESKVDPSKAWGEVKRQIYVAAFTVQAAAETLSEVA

Row | Compound | log D [1] | IC50 (PSMA) | Biodistribution Heart [2] | Biodistribution Intestine [2] | Biodistribution Kidneys [2] | Biodistribution Liver [2] | Biodistribution Lung [2] | Biodistribution Pancreas [2] | Biodistribution Parotid gland [2] | Biodistribution Spleen [2] | Biodistribution Stomach [2] | Biodistribution Submandibular gland [2] | Biodistribution Tumor [2] | internalization (in words) (LNCaP cells; 1 h) | %Internalization compared to the reference (LNCaP cells; 0.5 h) | %Internalization compared to the reference (LNCaP cells; 1 h) | %Internalization compared to the reference (LNCaP cells; 2 h) | %Internalization compared to the reference (LNCaP cells; 4 h) | other results
1 | CCCCCCC(NC(=O)C(CCC(=O)O)NC(=O)NC(CCC(=O)NC(CCCNC(=O)CCC(=O)NCCCCC(NC(=O)C(CNC(=O)c1ccc([Si](F)(C(C)(C)C)C(C)(C)C)cc1)NC(=O)CN1CCN(CC(=O)[O-])CCN(CC(=O)[O-])CCN(CC(=O)[O-])CC1)C(=O)O)C(=O)O)C(=O)O)C(=O)O.[Lu+3] (centres unmarked) [^natLu/[^177Lu]Lu-7] | −2.37 ± 0.22 | 6.3 ± 3.6 µM | 0.03 ± 0.01 % ID/g | 0.10 ± 0.05 % ID/g | 2.04 ± 0.75 % ID/g | 0.17 ± 0.05 % ID/g | 0.04 ± 0.01 % ID/g | 0.02 ± 0.00 % ID/g | 0.06 ± 0.01 % ID/g | 0.08 ± 0.02 % ID/g | 0.04 ± 0.01 % ID/g | 0.05 ± 0.02 % ID/g | 0.14 ± 0.05 % ID/g | no internalization could be detected | 0.5 h: 0.00 ± 0.00 1 h: 0.00 ± 0.00 2 h: 0.00 ± 0.00 4 h: 0.00 ± 0.00% | 0.5 h: 0.00 ± 0.00 1 h: 0.00 ± 0.00 2 h: 0.00 ± 0.00 4 h: 0.00 ± 0.00% | 0.5 h: 0.00 ± 0.00 1 h: 0.00 ± 0.00 2 h: 0.00 ± 0.00 4 h: 0.00 ± 0.00% | 0.5 h: 0.00 ± 0.00 1 h: 0.00 ± 0.00 2 h: 0.00 ± 0.00 4 h: 0.00 ± 0.00% | Biodistribution Adrenals [2]: 0.03 ± 0.01 % ID/g; Biodistribution Blood [2]: 0.01 ± 0.00 % ID/g; Biodistribution Bone [2]: 0.04 ± 0.01 % ID/g; Biodistribution Muscle [2]: 0.01 ± 0.00 % ID/g
2 | CSCC[C@H](NC(=O)CC[C@H](NC(=O)N[C@@H](CCC(=O)N[C@H](CCCNC(=O)CCC(=O)NCCCC[C@@H](NC(=O)[C@@H](CNC(=O)c1ccc([Si](F)(C(C)(C)C)C(C)(C)C)cc1)NC(=O)CN1CCN(CC(=O)[O-])CCN(CC(=O)[O-])CCN(CC(=O)[O-])CC1)C(=O)O)C(=O)O)C(=O)O)C(=O)O)C(=O)O.[Lu+3] [^natLu/[^177Lu]Lu-5] | −2.89 ± 0.18 | 26 ± 16 µM | 0.01 ± 0.00 % ID/g | 0.55 ± 0.04 % ID/g | 0.48 ± 0.02 % ID/g | 0.05 ± 0.00 % ID/g | 0.33 ± 0.30 % ID/g | 0.01 ± 0.00 % ID/g | 0.02 ± 0.00 % ID/g | 0.05 ± 0.01 % ID/g | 0.14 ± 0.07 % ID/g | 0.02 ± 0.01 % ID/g | 0.09 ± 0.02 % ID/g | no internalization could be detected | 0.00 ± 0.00% | 0.00 ± 0.00% | 0.17 ± 0.32% | 0.01 ± 0.05% | –
3 | botulinum toxin | – | – | – | – | – | – | – | – | – | – | – | – | – | – | – | – | – | – | decrease of the SUVmean in the right parotid gland compared to the left (control) [3]: up to 64%
